Columns and labels:
[1] = comparison value for Gd-DTPA, literature references; cited from earlier work
U87MG cells = assay: Cytotoxicity study, MTT assay with 2.5 mM Ca(II); type: cell-based, human; details: 24 h
Method: Gd@C-dots were also subjected to a cytotoxicity study with U87MG cells using standard MTT assays. The cells were first seeded in 96-well plates (1×10^4 cells per well). After 24 h, Gd@C-dots at different concentrations were added. Incubation was carried out for 24 h with or without 2.5 mM CaCl2. To assess the particles' stability against transmetallation, which is the major cause of toxicity for conventional Gd contrast agents (Corot et al., J. Magn. Reson. Imaging 1998, 8(3):695-702), 2.5 mM Ca(II) was added into the incubation medium.

Question: Which results are given for CNC[C@H](O)[C@@H](O)[C@H](O)[C@H](O)CO.CNC[C@H](O)[C@@H](O)[C@H](O)[C@H](O)CO.O=C([O-])CN(CCN(CC(=O)[O-])CC(=O)O)CCN(CC(=O)[O-])CC(=O)O.[Gd+3] [Gd-DTPA, gadopentetic acid]?
Answer: r1 relaxivity [1]: 3.10 mM⁻¹ s⁻¹; IC50 (cell death) (U87MG cells): 33.1 µg/mL
